In publication PMC4643876, “Picomolar Inhibition of Plasmepsin V, an Essential Malaria Protease, Achieved Exploiting the Prime Region” (PLoS ONE, 2015):
“And” between values parts separate entries of the source, which are not always exact repeats. Equal values may be shown once. Read-outs that look alike come from different tables or passages of the source. * marks the point of attachment. DABCYL = CN(C)c1ccc(/N=N/c2ccc(C(=O)*)cc2)cc1; EDANS = O=S(=O)(O)c1cccc2c(NCCN*)cccc12

Key:
[1] = target: T1, PmV-GFP (Plasmodium falciparum, UniProt Q8I6Z5); assay: Pull-down / co-precipitation of PmV-inhibitor complexes from DC6 lysates; format: binding
T1 construct: parasite cellular lysates of DC6 a clone that constitutively expresses PmV-GFP; expressed in transfected cells; host or cells: Plasmodium falciparum clone DC6 (3D7-derived; PmV-GFP under the native PmV promoter), crude lysate
Method: Pull-down experiments were performed using parasite cellular lysates of DC6 a clone that constitutively expresses PmV-GFP [15]. […] [i] […] An anti-GFP antibody, 3E6, was added with protein A-agarose as above described and incubated 1 h at 4°C, with gentle agitation. The resin was washed 3 times with cold PBS and then boiled in Laemmli sample buffer for later biotin detection in a dot-blot format. [ii] […] Incubation was carried out for 1 h at 4°C gently maintaining the beads in suspension. Then the resin was washed 3 times with cold PBS and boiled in Laemmli sample buffer for subsequent protein western blot analysis of the pull-down material.

[2] = target: T2, Plasmepsin V (PmV) (Plasmodium falciparum, UniProt Q8I6Z5); assay: PmV inhibition, fluorimetric PExEl cleavage assay; format: biochemical
T2 construct: PmV was purified directly from parasites; made in house
Method: Saponin was added to culture to a final 0.05%; parasites were recovered via centrifugation at 4°C after 5 min of incubation on ice; parasite pellets were then washed twice in cold PBS and either immediately lysed or stored at -80°C until lysis. Parasites were lysed via three pulses of ultra-sonication of 10 sec duration, in PBS containing 0.5% Triton-X100 (TX-100). […] Quick washes of the resin were performed either in batches, or over columns, to remove unbound cellular material (four with ice-cold 0.5% TX-100 in PBS and a final one with cold PBS). Resin-bound PmV was stored in PBS at 4°C and used within 2–3 weeks, larger batches had Glycerol added to them, up to 10%, and were stored at -20°C for up to 5 months. […] Quality and purity of PmV batches were routinely confirmed by protein electrophoresis. Quantification of PmV was performed via densitometry analysis of stained protein SDS-PAGE gels relative to BSA standard curves.
(§1) PExEl cleavage activity was monitored by fluorimetric measurement of PExEl cleavage, as previously reported. […] PmV activity was performed at 37°C in 50 mM Tris-Maleate, pH 6.5, 50 mM NaCl, 0.05% TX-100, 2 mM DTT. Assays were routinely conducted in triplicate. Bead-bound enzyme was added to the reaction using ‘end-cut’ micropipette tips in order to facilitate sampling the suspension.
Inhibitory activities were measured in the presence of a substrate concentration of 3 μM by serial dilution of each compound in triplicates. […] Titration curves of the inhibitors were routinely composed of eleven points from 10 μM to 0.1 pM. PmV concentration was kept in the order of low picomolar (≤10 pM). […] Analysis of the half inhibitory activity (IC50) was performed by sigmoidal interpolation of the starting velocities of the hydrolytic reactions for each condition. Starting velocities were calculated on the initial linear range of the product progression curves. […] Data are presented with error bars indicating the standard deviation of three independent activity curves.

[3] = test system: Plasmodium falciparum strain 3D7; assay: Parasite growth inhibition by flow cytometry, strain 3D7; format: cell-based; settings: asynchronous 3D7 cultures, about 4 days, 0.195–200 μM, flow cytometry
[4] = pH 7.4
[5] = test system: clone G6 (PmV-GFP-DD); assay: Growth curve analysis over 10 days, clone G6; format: cell-based, Plasmodium falciparum; parameters: growth rate (r): unit not given here; settings: 0.75 μM Shield-1
Excerpt: (§2) Fig 14 PmV-GFP-DD clone G6 generation and characterization. (A) Creation of a PmV-GFP-DD chimera by homologous recombination. […] The plasmid contains sequence from the PmV ORF 3’ end in frame with GFP-DD [24]. Relative positions of BsrGI restriction sites (vertical bars) and the probe are indicated. (B) Southern blot of BsrGI-restricted DNA from the parental strain 3D7, the 3 drug cycles (Selection I, II, III), 3 of the isolated clones, among which G6 is number 3, and the transfected plasmid (at the far right) is shown. Arrows: endogenous gene (blue), and modified PmV locus (green). (C) Live microscopy of the clone expressing the cytosolic YFP-DD chimera (via episomally maintained plasmid) and G6 in presence or absence of 0.5 μM Shield-1. Top to Bottom: bright field (grey), Hoechst (blue), fluorescent proteins (green), Lysotracker (red), merges of the blue and green channels and of all three channels. (D) Western blot of total lysates of parasites at diverse concentrations of Shield-1 (0–1 μM): clone DC6, clone G6 and 3D7 expressing YFP-DD. PmV was detected with both anti-GFP and anti-PmV. BiP detection served as loading control. (E) Live microscopy of the G6 clone expressing the PmV-GFP-DD chimera at various Shield-1 concentrations (0–1 μM). (F) PmV levels from DC6 (green) and G6 (red) were quantified from blot (panel D) and plotted as ratio of PmV to BiP. The last point of the ratio is affected by a reduced BiP expression in 1 μM Shield-1. This is possibly due to the level of toxicity of this molecule at high concentrations. (G) Flow cytometry analysis of the GFP signal of PmV-GFP-DD (clone G6) in presence (green line) or absence (red line) of 0.75 μM Shield-1 in respect of PmV-GFP (clone DC6) (black line). The cellular levels of PmV-GFP(±DD) are similar in the presence 0.75 μM Shield-1 while PmV-GFP-DD is about 4 times less than PmV-GFP in the absence of Shield-1. (H) Growth curve analysis over 10 days for PmV-GFP-DD and DC6 in the presence or absence of 0.75 μM Shield-1.

[6] = test system: clone DC6; assay: Growth curve analysis over 10 days, clone DC6; format: cell-based, Plasmodium falciparum; parameters: growth rate (r): unit not given here; settings: 0.75 μM Shield-1
Excerpt: as §2

[7] = target: T2, Plasmepsin V (PmV); assay: PmV steady-state kinetics of substrate hydrolysis; format: biochemical
Method: as §1
Steady-state measurements of PmV substrate hydrolysis were analyzed assuming the widely accepted aspartic protease mechanism, E + S → ES → ET* → EP → E + P, where P is the product of the reaction; S is the substrate; E is the free enzyme; ES, ET* and EP denote the enzyme-substrate, the transition state and enzyme-product adducts, respectively. The measurement of steady-state velocity of product formation, v = d[P]/dt, yielded catalytic constants according to the classical Michaelis-Menten equation v = e * kcat *[S] / ([S] + K M), where e is enzyme concentration. In our experimental conditions the fluorescence of HETQ-EDANS (AnaSpec), the reaction product (P), was quantified by titration. PmV kinetics parameters were calculated using non-linear curve-fitting analyses from SigmaPlot on the basis of measurements with multiple substrate concentrations monitored until the completion of the reaction. […]

[8] = 3 μM HRPII-PExEl substrate, averages of not less than three inhibition curves, read-out: IC50

T2 sequence (Q8I6Z5 whole entry): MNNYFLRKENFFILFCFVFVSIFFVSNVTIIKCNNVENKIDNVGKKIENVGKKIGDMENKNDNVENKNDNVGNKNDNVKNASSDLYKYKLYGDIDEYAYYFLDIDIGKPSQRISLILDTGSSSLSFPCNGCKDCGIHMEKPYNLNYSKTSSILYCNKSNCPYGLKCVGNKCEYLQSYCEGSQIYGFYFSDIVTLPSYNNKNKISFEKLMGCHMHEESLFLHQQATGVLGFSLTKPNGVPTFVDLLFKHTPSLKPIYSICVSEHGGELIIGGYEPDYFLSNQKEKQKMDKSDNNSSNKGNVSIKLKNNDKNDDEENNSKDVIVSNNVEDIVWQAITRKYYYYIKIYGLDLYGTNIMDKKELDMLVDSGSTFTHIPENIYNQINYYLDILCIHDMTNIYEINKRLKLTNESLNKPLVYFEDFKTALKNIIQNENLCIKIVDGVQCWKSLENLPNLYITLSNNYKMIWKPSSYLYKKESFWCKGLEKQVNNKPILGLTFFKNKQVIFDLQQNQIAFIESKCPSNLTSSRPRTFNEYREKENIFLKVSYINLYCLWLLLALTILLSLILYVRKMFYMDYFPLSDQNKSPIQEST
T1 sequence (Q8I6Z5 whole entry): as above

Compound: CC(C)C[C@H](NC(=O)[C@@H](N)CCCNC(=N)N)C(=O)N[C@@H](CC(C)C)C(O)CN[C@@H](C)C(=O)N[C@@H](CCC(=O)O)C(=O)N[C@@H](C)C(N)=O (mixture of isomers) [Compound 1]
- competition of Compound 36 binding to PmV ([1]; 50 μM competitor): negatively affects the interaction between Compound 36 and PmV
- Ki [2]: 0.2 nM
- IC50 [2, 8]: 0.37 nM
- IC50 ([2]; 3 μM substrate, read-out: IC50): 0.367 nM
- IC50 ([2]; inhibitor added after the reaction was initiated, read-out: IC50): 0.329 nM
- IC50 ([2]; pre-mixing the enzyme with inhibitor, read-out: IC50): 0.367 nM
- greater inhibition efficiency relative to WEHI916 ([2]; side-by-side comparison): ~ 100 fold
- LD50 growth inhibition [3]: > 200 µM
- logD [4]: -4.28

Compound: CC(C)C[C@H](NC(=O)[C@@H](N)CCCNC(=N)N)C(=O)N[C@@H](CC(C)C)C(O)CN[C@@H](C)C(=O)N[C@@H](CCC(=O)O)C(=O)N[C@@H](C)C(=O)O (mixture of isomers) [Compound 4]
- IC50 increase compared to Compound 1 [2]: 1.3–3.5 fold
- Ki [2]: 0.7 nM
- IC50 [2, 8]: 1.31 nM
- LD50 growth inhibition [3]: > 200 µM

Compound: CC[C@H](C)[C@H](NC(=O)[C@@H](N)CCCNC(=N)N)C(=O)N[C@@H](CC(C)C)C(O)CN[C@@H](C)C(=O)N[C@@H](CCC(=O)O)C(=O)N[C@@H](C)C(N)=O (mixture of isomers) [Compound 5]
- Ki [2]: 0.35 nM
- IC50 [2, 8]: 0.65 nM
- LD50 growth inhibition [3]: > 200 µM

Compound: CC[C@H](C)[C@H](NC(=O)[C@@H](N)CCCNC(=N)N)C(=O)N[C@@H](CC(C)C)C(O)CN[C@@H](C)C(=O)N[C@@H](CCC(=O)O)C(=O)N[C@@H](C)C(=O)O (mixture of isomers) [Compound 6]
- IC50 increase compared to Compound 5 [2]: 1.3–3.5 fold
- Ki [2]: 1.16 nM
- IC50 [2, 8]: 2.16 nM
- LD50 growth inhibition [3]: > 200 µM

Compound: CSCC[C@H](N)C(=O)N[C@@H](CC(C)C)C(=O)N[C@@H](CC(C)C)C(O)CN[C@@H](C)C(=O)N[C@@H](CCC(=O)O)C(=O)N[C@@H](C)C(=O)O (mixture of isomers) [Compound 16]
- IC50 [2, 8]: > 10000 nM
- IC50 ([2]; 3 μM substrate, tested up to 10 μM): completely inactive
- LD50 growth inhibition [3]: > 200 µM

Compound: CC(=O)N[C@@H](CCCNC(=N)N)C(=O)N[C@@H](CC(C)C)C(=O)N[C@@H](CC(C)C)C(O)CN[C@@H](C)C(=O)N[C@@H](CCC(N)=O)C(=O)N[C@@H](C)C(N)=O (mixture of isomers) [Compound 35]
- Ki [2]: 63.5 nM
- IC50 [2, 8]: 118 nM
- LD50 growth inhibition [3]: 16.5 μM and ~ 16.5 μM

Compound: CC(C)C[C@H](NC(=O)[C@@H](N)CCCNC(=N)N)C(=O)N[C@@H](CC(C)C)[C@@H](O)CN[C@@H](C)C(=O)N[C@@H](CCC(N)=O)C(=O)N[C@@H](C)C(N)=O [Compound 8a]
- IC50 increase compared to Compound 1 [2]: ~ 4 fold
- Ki [2]: 0.83 nM
- IC50 [2, 8]: 1.55 nM
- LD50 growth inhibition [3]: 64.1 µM

Compound: CC(C)C[C@H](NC(=O)[C@@H](N)Cc1c[nH]c2ccccc12)C(=O)N[C@@H](CC(C)C)[C@@H](O)CN[C@@H](C)C(=O)N[C@@H](CCC(=O)O)C(=O)N[C@@H](C)C(N)=O [Compound 15a]
- Ki [2]: 1380 nM
- IC50 [2, 8]: 2570 nM
- LD50 growth inhibition [3]: ~ 100.5 μM

Compound: CC(C)C[C@H](NC(=O)[C@@H](N)CCC(N)=O)C(=O)N[C@@H](CC(C)C)[C@@H](O)CN[C@@H](C)C(=O)N[C@@H](CCC(=O)O)C(=O)N[C@@H](C)C(=O)O [Compound 17a]
- Ki [2]: 2360 nM
- IC50 [2, 8]: 4390 nM
- LD50 growth inhibition [3]: > 200 µM

Compound: CC(C)C[C@H](NC(=O)[C@H](CCCNC(=N)N)NC(=O)CCCNC(=O)CCCNC(=O)CCCC[C@@H]1SC[C@@H]2NC(=O)N[C@@H]21)C(=O)N[C@@H](CC(C)C)C(O)CN[C@@H](C)C(=O)N[C@@H](CCC(N)=O)C(=O)N[C@@H](C)C(=O)O (stereo partly drawn) [Compound 36]
- interaction with PmV in pull-down / immuno-precipitation ([1]; DC6 lysate, 50 μM or streptavidin-resin bound): confirmed the interaction between our inhibitor and PmV

Compound: CCCCCCCC(=O)N[C@@H](CCCNC(=N)N)C(=O)N[C@@H](CC(C)C)C(=O)N[C@@H](CC(C)C)[C@@H](O)CN[C@@H](Cc1ccc(O)cc1)C(=O)N[C@@H](CCC(=O)O)C(=O)N[C@@H](C)C(N)=O [Compound 37a]
- Ki [2]: 0.01 nM
- fold more active than parent compound 7a [2]: more than 50 fold
- IC50 [2, 8]: 0.023 nM
- IC50 ([2]; 3 μM substrate, read-out: IC50): ~0.023 nM
- LD50 growth inhibition [3]: > 200 µM

Compound: O=c1oc2c(O)c(O)cc3c(=O)oc4c(O)c(O)cc1c4c23 [Ellagic acid, reference compound]
- LD50 growth inhibition [3]: 2.4 µM

Compound: CC[C@H](C(=O)N1CCCC[C@H]1C(=O)O[C@H](CCc1ccc(OC)c(OC)c1)c1cccc(OCCN2CCOCC2)c1)c1cc(OC)c(OC)c(OC)c1 [Shield-1]
- doubling time (T) [5]: 34.15 h
- growth constant (k) [5]: 0.0203
- growth rate (r) [5]: 2.05
- doubling time (T) [6]: 34.83 h
- growth constant (k) [6]: 0.0199
- growth rate (r) [6]: 2.01

Compound: DABCYL-LNKRLLHETQ-EDANS ({DABCYL}-LNKRLLHETQ-{EDANS}; SMILES CC(C)C[C@H](NC(=O)c1ccc(/N=N/c2ccc(N(C)C)cc2)cc1)C(=O)N[C@@H](CC(N)=O)C(=O)N[C@@H](CCCCN)C(=O)N[C@@H](CCCNC(=N)N)C(=O)N[C@@H](CC(C)C)C(=O)N[C@@H](CC(C)C)C(=O)N[C@@H](Cc1c[nH]cn1)C(=O)N[C@@H](CCC(=O)O)C(=O)N[C@H](C(=O)N[C@@H](CCC(N)=O)C(=O)NCCNc1cccc2c(S(=O)(=O)O)cccc12)[C@@H](C)O) [HRPII-derived fluorogenic substrate of PmV]
- Km [7]: 3.48 µM
- K M ([7]; substrate 0.19 to 6 μM): 3.48 (±0.7) 10^−6 M
